Experimental data: ChEMBL document CHEMBL3091433, “Structure-based design of substituted hexafluoroisopropanol-arylsulfonamides as modulators of RORc” (Bioorg Med Chem Lett, 2013)

Assays:
[1] = biological target: T1, Nuclear receptor ROR-alpha (Homo sapiens, UniProt P35398); test: Inverse agonist activity at GAL4-fused human RORa expressed in HEK293T cells assessed as suppression of basal transcriptional activity after 20 hrs by dual-glo luciferase reporter gene assay; type: cell-based, HEK-293T
T1 sequence (P35398 whole entry): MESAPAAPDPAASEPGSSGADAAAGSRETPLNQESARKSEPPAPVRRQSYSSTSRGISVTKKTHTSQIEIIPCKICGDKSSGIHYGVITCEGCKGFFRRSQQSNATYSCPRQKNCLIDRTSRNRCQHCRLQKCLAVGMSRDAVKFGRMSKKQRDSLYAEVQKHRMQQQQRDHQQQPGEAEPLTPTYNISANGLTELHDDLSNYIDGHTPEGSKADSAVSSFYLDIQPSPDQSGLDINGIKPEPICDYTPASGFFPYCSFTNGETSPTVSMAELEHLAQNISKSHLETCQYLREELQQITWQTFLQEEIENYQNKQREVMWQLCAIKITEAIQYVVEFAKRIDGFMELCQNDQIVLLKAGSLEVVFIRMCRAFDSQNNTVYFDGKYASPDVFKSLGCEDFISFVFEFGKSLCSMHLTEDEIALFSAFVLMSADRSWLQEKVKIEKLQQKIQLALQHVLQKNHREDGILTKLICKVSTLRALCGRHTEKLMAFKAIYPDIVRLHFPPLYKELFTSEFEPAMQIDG

[2] = biological target: T2, Nuclear receptor subfamily 1 group I member 2 (Homo sapiens, UniProt O75469); test: Agonist activity at GAL4-fused human PXR expressed in HEK293T cells assessed as activation of basal transcriptional activity after 20 hrs by dual-glo luciferase reporter gene assay; type: cell-based, HEK-293T
T2 sequence (O75469 whole entry): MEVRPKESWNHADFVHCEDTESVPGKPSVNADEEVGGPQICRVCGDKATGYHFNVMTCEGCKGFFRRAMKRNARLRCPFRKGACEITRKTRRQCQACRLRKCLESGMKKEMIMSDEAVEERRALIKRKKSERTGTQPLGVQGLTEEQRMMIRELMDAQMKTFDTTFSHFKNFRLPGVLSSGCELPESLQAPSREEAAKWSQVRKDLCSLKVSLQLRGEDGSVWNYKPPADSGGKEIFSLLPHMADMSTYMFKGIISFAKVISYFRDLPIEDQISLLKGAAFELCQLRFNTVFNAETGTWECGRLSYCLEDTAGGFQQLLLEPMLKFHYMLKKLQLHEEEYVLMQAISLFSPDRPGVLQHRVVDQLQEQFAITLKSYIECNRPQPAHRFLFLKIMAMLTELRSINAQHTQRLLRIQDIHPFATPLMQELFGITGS

[3] = biological target: T3, Oxysterols receptor LXR-alpha (Homo sapiens, UniProt Q13133)
T3 sequence (Q13133 whole entry): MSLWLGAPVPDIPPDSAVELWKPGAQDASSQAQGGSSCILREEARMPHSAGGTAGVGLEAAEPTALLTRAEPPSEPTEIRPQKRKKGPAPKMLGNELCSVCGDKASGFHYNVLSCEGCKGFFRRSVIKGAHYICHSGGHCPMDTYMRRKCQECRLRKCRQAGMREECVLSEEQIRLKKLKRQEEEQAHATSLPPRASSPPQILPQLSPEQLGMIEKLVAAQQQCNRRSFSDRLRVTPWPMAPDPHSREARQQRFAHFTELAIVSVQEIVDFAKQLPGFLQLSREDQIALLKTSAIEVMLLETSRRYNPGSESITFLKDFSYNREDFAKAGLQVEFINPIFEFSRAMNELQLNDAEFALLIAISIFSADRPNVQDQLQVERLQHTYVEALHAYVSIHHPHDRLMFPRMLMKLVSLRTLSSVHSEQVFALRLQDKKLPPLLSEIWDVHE
Description: Agonist activity at GAL4-fused human LXRalpha expressed in HEK293T cells assessed as activation of basal transcriptional activity after 20 hrs by dual-glo luciferase reporter gene assay

Bile acid receptor = biological target: T4, Bile acid receptor (Homo sapiens, UniProt Q96RI1); test: Agonist activity at GAL4-fused human FXR expressed in HEK293T cells assessed as activation of basal transcriptional activity after 20 hrs by dual-glo luciferase reporter gene assay; type: cell-based, HEK-293T
T4 sequence (Q96RI1 whole entry): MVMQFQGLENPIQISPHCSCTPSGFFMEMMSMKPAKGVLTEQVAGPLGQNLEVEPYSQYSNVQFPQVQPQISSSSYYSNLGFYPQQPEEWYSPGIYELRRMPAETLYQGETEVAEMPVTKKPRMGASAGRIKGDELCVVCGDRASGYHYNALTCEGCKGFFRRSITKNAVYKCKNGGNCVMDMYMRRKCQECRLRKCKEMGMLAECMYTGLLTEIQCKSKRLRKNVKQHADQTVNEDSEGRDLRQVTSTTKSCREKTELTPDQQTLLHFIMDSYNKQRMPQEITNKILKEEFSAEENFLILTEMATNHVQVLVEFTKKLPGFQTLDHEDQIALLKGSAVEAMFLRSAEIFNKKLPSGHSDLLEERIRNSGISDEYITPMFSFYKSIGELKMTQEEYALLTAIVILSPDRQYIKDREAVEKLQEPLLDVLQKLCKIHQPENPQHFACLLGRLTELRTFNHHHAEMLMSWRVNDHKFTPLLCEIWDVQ

[4] = biological target: T5, Nuclear receptor ROR-beta (Homo sapiens, UniProt Q92753); test: Inverse agonist activity at GAL4-fused human RORb expressed in HEK293T cells assessed as suppression of basal transcriptional activity after 20 hrs by dual-glo luciferase reporter gene assay; type: cell-based, HEK-293T
T5 sequence (Q92753 whole entry): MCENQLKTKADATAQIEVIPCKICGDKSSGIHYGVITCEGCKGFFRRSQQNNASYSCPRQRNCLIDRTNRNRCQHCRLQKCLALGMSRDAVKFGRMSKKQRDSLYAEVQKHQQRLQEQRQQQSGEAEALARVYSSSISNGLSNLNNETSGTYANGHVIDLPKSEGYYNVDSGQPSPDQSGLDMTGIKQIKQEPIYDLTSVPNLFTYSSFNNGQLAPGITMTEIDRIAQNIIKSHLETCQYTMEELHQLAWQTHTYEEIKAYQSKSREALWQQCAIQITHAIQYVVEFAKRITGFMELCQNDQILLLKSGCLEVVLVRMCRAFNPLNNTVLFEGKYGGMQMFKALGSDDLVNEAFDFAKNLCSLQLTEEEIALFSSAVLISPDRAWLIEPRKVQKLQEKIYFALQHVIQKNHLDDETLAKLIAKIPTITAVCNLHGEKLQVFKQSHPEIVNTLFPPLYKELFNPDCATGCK

Structure (SMILES) | EC50 [1] [µM] | EC50 [2] [µM] | EC50 [3] [µM] | EC50 (Bile acid receptor) [µM] | EC50 [4] [µM]
CCN(c1ccc(C(O)(C(F)(F)F)C(F)(F)F)cc1)S(=O)(=O)c1ccccc1 | 5 | 0.039 | 3 | 9 | 4
N#Cc1ccc(S(=O)(=O)N(CC(F)(F)F)c2ccc(C(O)(C(F)(F)F)C(F)(F)F)cc2)cc1 | 7 | 0.571 | > 10 | 3 | 5
O=S(=O)(c1ccc(F)cc1)N(CC(F)(F)F)c1ccc(C(O)(C(F)(F)F)C(F)(F)F)cc1 | 6 | 0.194 | 0.719 | 1 | 6
